Experimental findings from patent US20060264419A1 (priority 2003, published 2006) are described below.

5-HT2A receptors, sequence (P14842 whole entry): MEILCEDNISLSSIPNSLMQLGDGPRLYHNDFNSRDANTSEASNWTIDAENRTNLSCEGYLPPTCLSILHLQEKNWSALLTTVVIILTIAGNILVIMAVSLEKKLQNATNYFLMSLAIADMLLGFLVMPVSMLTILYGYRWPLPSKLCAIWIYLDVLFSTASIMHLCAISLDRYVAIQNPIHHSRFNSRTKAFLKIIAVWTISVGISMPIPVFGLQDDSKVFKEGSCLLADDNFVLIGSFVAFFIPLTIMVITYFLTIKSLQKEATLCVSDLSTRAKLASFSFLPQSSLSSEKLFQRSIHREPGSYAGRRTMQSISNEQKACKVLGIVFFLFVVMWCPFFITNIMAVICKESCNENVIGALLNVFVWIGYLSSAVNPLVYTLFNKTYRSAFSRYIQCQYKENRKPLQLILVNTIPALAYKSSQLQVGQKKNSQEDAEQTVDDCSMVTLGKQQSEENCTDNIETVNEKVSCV

In the first assay the target is 5-HT2A receptors (Rattus norvegicus, UniProt P14842). As to the kind of experiment: in-vitro affinity to 5-HT2A receptors, displacement of [3H]ketanserine (Example A1). The assay is classed as binding. The conditions noted are these: read-out: HT2A IC50. The source says:
The 5-HT2A receptors are exposed both to [^3H]ketanserine (a substance which is known for its affinity to the receptor) and also to the test compound. The decrease in the affinity of [^3H]ketanserine to the receptor is an indication of the affinity of the test substance to the 5-HT2A receptor.
On the technique in general: Loss of bound radioactivity is the signal in a displacement assay; it reports binding, not function.
In the case of `O=c1ccccn1Cc1cnn(-c2ccc(-c3ccccc3)cc2)c1-c1ccccc1F` [Example 1012, 1-[1-Biphenyl-4-yl-5-(2-fluorophenyl)-1H-pyrazol-4-ylmethyl]-1H-pyridin-2-one], the IC50 came to 200 nM.

On to `Cc1cc(CNCc2cnn(-c3ccc(-c4ccccc4)cc3)c2-c2ccccc2)no1` [Example 1023, (1-Biphenyl-4-yl-5-phenyl-1H-pyrazol-4-yl-methyl)-(5-methylisoxazol-3-ylmethyl)amine], for which the IC50 amounted to 240 nM.

Take `O=C(c1cnn(-c2ccc(-c3ccccc3)cc2)c1-c1ccccc1F)N1CCOCC1` [Example 1043, 1-[1-Biphenyl-4-yl-5-(2-fluorophenyl)-1H-pyrazol-4-yl]-1-morpholin-4-ylmethanone]: the IC50 worked out at 360 nM.

In the case of `COc1ccc(-c2c(CN3CCN(C(C)C)CC3)cnn2-c2ccc(-c3ccc(F)cc3)cc2)cc1` [Example 1040, 1-[1-(4′-Fluorobiphenyl-4-yl)-5-(4-methoxy-phenyl)-1H-pyrazol-4-ylmethyl]-4-isopropyl-piperazine], the IC50 amounted to 320 nM.

Staying with this assay, now noted: target not given; description names affinity to 5-HT2A receptors; read-out: IC50.
Turning to `Fc1ccccc1-c1c(CN2CCNCC2)cnn1-c1ccc(-c2ccccc2)nc1` [(56), 1-[5-(2-Fluorophenyl)-1-(6-phenylpyridin-3-yl)-1H-pyrazol-4-ylmethyl]piperazine], the IC50 turned out to be 150 nM.

In the case of `CN(CCO)Cc1cnn(-c2ccc(-c3ccccc3)cc2)c1-c1ccccc1F` [(92), 2-{[1-Biphenyl-4-yl-5-(2-fluorophenyl)-1H-pyrazol-4-ylmethyl]-methylamino}ethanol], the IC50 is 16 nM.

For `Fc1ccc(-c2ccc(-n3ncc(CNc4cnccn4)c3-c3ccccc3F)cn2)cc1` [(196), {5-(2-Fluorophenyl)-1-[6-(4-fluorophenyl)pyridin-3-yl]-1H-pyrazol-4-ylmethyl}pyrazin-2-ylamine], the IC50 worked out at 1200 nM.

For the compound `NC(=O)C1CCCN1Cc1cnn(-c2ccc(-c3ccccc3)cc2)c1-c1ccccc1F` (stereo not shown) [(155), 1-[1-Biphenyl-4-yl-5-(2-fluorophenyl)-1H-pyrazol-4-ylmethyl]-pyrrolidine-2-carboxamide], the IC50 was determined as 1700 nM.

In the case of `CN1CCN(Cc2cnn(-c3ccc(-c4cc(F)ccc4F)cc3)c2-c2ccccc2F)CC1` [(65), 1-[1-(2′,5′-Difluorobiphenyl-4-yl)-5-(2-fluorophenyl)-1H-pyrazol-4-ylmethyl]-4-methylpiperazine], the IC50 was 55 nM.

`Cc1nn(C)c(C)c1NCc1cnn(-c2ccc(-c3ccccc3)cc2)c1-c1ccccc1F` [(187), [1-Biphenyl-4-yl-5-(2-fluorophenyl)-1H-pyrazol-4-ylmethyl]-(1,3,5-trimethyl-1H-pyrazol-4-yl)amine]: the IC50 turned out to be 590 nM.

Consider `Fc1ccccc1-c1cc(CN2CCCCC2)nn1-c1ccc(-c2ccccc2)cc1` [(43), 1-[1-Biphenyl-4-yl-5-(2-fluorophenyl)-1H-pyrazol-3-ylmethyl]-piperidine], for which the IC50 came to 120 nM.

For `Fc1ccccc1-c1c(CNCCc2c[nH]cn2)cnn1-c1ccc(-c2ccccc2)cc1` [(154), [1-Biphenyl-4-yl-5-(2-fluorophenyl)-1H-pyrazol-4-ylmethyl]-[2-(1H-imidazol-4-yl)ethyl]amine], the IC50 amounted to 170 nM.

Take `Fc1ccccc1-c1c(CNC2CCN(Cc3ccccc3)C2)cnn1-c1ccc(-c2ccccc2)cc1` (stereo not shown) [(161), (1-Benzylpyrrolidin-3-yl)-[1-biphenyl-4-yl-5-(2-fluorophenyl)-1H-pyrazol-4-ylmethyl]amine]: the IC50 is 310 nM.

Regarding `CN(C)CCN(C)Cc1cnn(-c2ccc(-c3ccc(F)cc3)nc2)c1-c1ccccc1F` [(141), N-{5-(2-fluorophenyl)-1-[6-(4-fluorophenyl)pyridin-3-yl]-1H-pyrazol-4-ylmethyl}-N,N′,N′-trimethylethane-1,2-diamine], the IC50 was 140 nM.

In the case of `N#CC(NCc1cnn(-c2ccc(-c3ccccc3)cc2)c1-c1ccccc1F)C(N)=O` (stereo not shown) [(136), 2-{[1-Biphenyl-4-yl-5-(2-fluorophenyl)-1H-pyrazol-4-ylmethyl]-amino}-2-cyanoacetamide], the IC50 is 130 nM.

For the compound `CC(C)c1ccc(-n2ncc(CN3CCN(C)CC3)c2-c2ccccc2F)cc1` [(114), 1-[5-(2-Fluorophenyl)-1-(4-isopropylphenyl)-1H-pyrazol-4-ylmethyl]-4-methylpiperazine], the IC50 turned out to be 120 nM.

Consider `Fc1ccccc1-c1c(CNc2ccon2)cnn1-c1ccc(-c2ccccc2)cc1` [(138), [1-Biphenyl-4-yl-5-(2-fluorophenyl)-1H-pyrazol-4-ylmethyl]-isoxazol-3-ylamine], for which the IC50 is 240 nM.

On to `CN1CCN(Cc2cnn(-c3ccc(-c4ccc(F)cc4)cc3)c2-c2ccccc2)CC1` [(97), 1-[1-(4′-Fluorobiphenyl-4-yl)-5-phenyl-1H-pyrazol-4-ylmethyl]-4-methylpiperazine], for which the IC50 came to 13 nM.

Consider `CN1CCN(Cc2cnn(-c3ccc(-c4ccccc4)cc3)c2-c2ccccn2)CC1` [(58), 1-(1-Biphenyl-4-yl-5-pyridin-2-yl-1H-pyrazol-4-ylmethyl)-4-methylpiperazine], for which the IC50 stood at 50 nM.

As for `CN1CCCN(Cc2cnn(-c3ccc(-c4ccccc4)cc3)c2-c2ccccc2F)CC1` [(93), 1-[1-Biphenyl-4-yl-5-(2-fluorophenyl)-1H-pyrazol-4-ylmethyl]-4-methyl-[1,4]diazepam], the concentration for half-maximal inhibition (IC50) came to 6.4 nM.

For the compound `c1ccc(-c2ccc(-n3ncc(CNCc4ccccn4)c3-c3ccccc3)cc2)cc1` [(172), (1-Biphenyl-4-yl-5-phenyl-1H-pyrazol-4-ylmethyl)pyridin-2-ylmethylamine], the IC50 was found to be 23 nM.

In the case of `CN1CCN(Cc2cc(-c3ccccc3F)n(-c3ccc(-c4ccccc4)cc3)n2)CC1` [(45), 1-[1-Biphenyl-4-yl-5-(2-fluorophenyl)-1H-pyrazol-3-ylmethyl]-4-methylpiperazine], the IC50 is 300 nM.

For the compound `Fc1ccccc1-c1c(CN2CCN(Cc3ccncc3)CC2)cnn1-c1ccc(-c2ccccc2)cc1` [(184), 1-[1-Biphenyl-4-yl-5-(2-fluorophenyl)-1H-pyrazol-4-ylmethyl]-4-pyridin-4-ylmethylpiperazine], the IC50 was 75 nM.

With `CCN(CC)CC1CCCCN1Cc1cnn(-c2ccc(-c3ccccc3)cc2)c1-c1ccccc1F` (stereo not shown) [(51), {1-[1-Biphenyl-4-yl-5-(2-fluorophenyl)-1H-pyrazol-4-ylmethyl]-piperidin-2-ylmethyl}diethylamine], the IC50 was determined as 270 nM.

For the compound `NC(=O)C1CCN(Cc2cnn(-c3ccc(-c4ccccc4)cc3)c2-c2ccccc2F)CC1` [(85), 1-[1-Biphenyl-4-yl-5-(2-fluorophenyl)-1H-pyrazol-4-ylmethyl]-piperidine-4-carboxamide], the IC50 was 870 nM.

In the case of `CCNC(=O)CN1CCN(Cc2cnn(-c3ccc(-c4ccccc4)cc3)c2-c2ccccc2F)CC1` [(139), 2-{4-[1-Biphenyl-4-yl-5-(2-fluorophenyl)-1H-pyrazol-4-ylmethyl]piperazin-1-yl}-N-ethylacetamide], the half-inhibitory concentration (IC50) was 230 nM.

Regarding `Nc1ccncc1NCc1cnn(-c2ccc(-c3ccccc3)cc2)c1-c1ccccc1F` [(177), N^3-[1-Biphenyl-4-yl-5-(2-fluorophenyl)-1H-pyrazol-4-ylmethyl]-pyridine-3,4-diamine], the IC50 turned out to be 180 nM.

Consider `Fc1ccccc1-c1ccc(-n2ncc(CN3CCOCC3)c2-c2ccccc2F)cn1` [(146), 4-{5-(2-Fluorophenyl)-1-[6-(2-fluorophenyl)pyridin-3-yl]-1H-pyrazol-4-ylmethyl}morpholine], for which the concentration for half-maximal inhibition (IC50) came to 600 nM.

Usually IC50 stands for the concentration that gives 50% inhibition.
